{"source": "patent US11384115B2", "about": "“Nuclear sulfated oxysterol, potent regulator of lipid homeostasis, for therapy of hypercholesterolemia, hypertriglycerides, fatty liver diseases, and atherosclerosis” (Virginia Commonwealth University, priority 2004, dated 2022)", "key": {"primary rat hepatocytes": {"system": "primary rat hepatocytes", "assay": "Bile acid synthesis rate, conversion of [14C]cholesterol into methanol/water-soluble products", "type": "cell-based", "conditions": "addition to primary rat hepatocytes", "procedure": "FIGS. 9A-9B. Effect of the nuclear oxysterol on cholesterol uptake and bile acid biosynthesis. Rat primary hepatocyes were treated with nuclear extracts (methanol/water phase) (A and B) or purified nuclear oxysterol dissolved in control nuclear extract (C) 24 hrs after plating them. Then [^14C]cholesterol was added as described in FIG. 1. Culture media were then harvested at 0, 6, 12, and 24 hrs and radioactivity quantified (A). Bile acid synthesis rates (B and C) were measured as the conversion of [^14C]cholesterol into methanol/water extractable counts as described in (9). Bile acid synthetic rates were determined by the addition of 2.5 μCi of [^14C]cholesterol to each […] mm plate of confluent primary rat hepatocyte cultures ( 2.5×10^7 cells) 24 hrs after plating. Media and cells were harvested […]. Conversion of [^14C]cholesterol into [^14C]-methanol-water soluble products was determined by scintillation counting after extraction with chloroform-methanol (2:1, vol/vol) of cells and of culture media. Rates of bile acid biosynthesis following recombinant adenovirus infection were calculated as the ratio of [^14C]-methanol-water soluble counts to the sum of chloroform plus methanol-water counts. Individual bile acids were identified by HPLC analysis as described above. […] The phases were collected separately and counted."}, "HepG2 cells": {"system": "HepG2 cells", "assay": "Cholesterol biosynthesis from [1-14C]acetate by TLC and HPLC", "type": "cell-based, human", "conditions": "HepG2, 25HC3S 6 hrs then [14C]acetate 4 hrs", "procedure": "After incubation of HepG2 cells with media containing 25HC3S for 6 hrs, cultures in 25-cm2 flasks were given 3 ml of the same fresh medium containing 5 μCi of the [1-^14C]acetate. After 4 hr incubation at 37° C., the media were removed and the cells were washed twice with phosphate-saline buffer (PBS), harvested with rubber police as described, and collected in Eppendoff tubes. The cells were sedimented by centrifugation and the pellets were washed three times by resuspension and sedimentation. The pellets were resuspended in 0.3 ml of PBS. The total lipids were extracted and separated by adding 3 volume of chloroform:methanol (v/v, 1:1). [^14C]Cholesterol and 27-hydroxycholesterol was isolated into chloroform phase and separated on TLC (tuluene:acetyl acetate, 2/3, v/v/). [1-^14C]acetate derivatives were visualized by Image Reader, Fujifilm BAS-1800 II.\n[1-^14C]Acetate derivatives in the chloroform phase were analyzed by HPLC on an Ultrasphere Silica column (5μ×4.6 mm×25 cm; Backman, USA) using HP Series 1100 solvent delivery system (Hewlett Packard) at 1.3 ml/min flow rate. The column was equilibrated and run in a solvent system of hexane:isopropanol:glacial acetic acid (965:25:10, v/v/v), as the mobile phase. The effluents were collected every 0.5 min (0.65 ml per fraction) except as indicated. The counts in [^14C]acetate derivatives were determined by Scintillation Counting. […]"}, "[1]": {"assay": "Liver triglycerides (Sudan IV staining) in mice on normal or high cholesterol diet", "type": "in vivo", "conditions": "normal or high cholesterol diet for 8 days", "excerpt": "To test the effect of diet on cholesterol levels, mice were provided with either a normal or high cholesterol diet for 8 days, and treated with the nuclear oxysterol as described above."}, "PPARγ": {"molecular_target": "T1, PPARγ (Homo sapiens, UniProt P37231)", "T1 construct": "THP-1 monocytes were differentiated to macrophages by adding 100 nM of phorbol 12-myristate 13-acetate (PMA); endogenous in cells; host or cells: THP-1 monocyte-derived macrophages (human, ATCC)", "T1 sequence (P37231 1-505)": "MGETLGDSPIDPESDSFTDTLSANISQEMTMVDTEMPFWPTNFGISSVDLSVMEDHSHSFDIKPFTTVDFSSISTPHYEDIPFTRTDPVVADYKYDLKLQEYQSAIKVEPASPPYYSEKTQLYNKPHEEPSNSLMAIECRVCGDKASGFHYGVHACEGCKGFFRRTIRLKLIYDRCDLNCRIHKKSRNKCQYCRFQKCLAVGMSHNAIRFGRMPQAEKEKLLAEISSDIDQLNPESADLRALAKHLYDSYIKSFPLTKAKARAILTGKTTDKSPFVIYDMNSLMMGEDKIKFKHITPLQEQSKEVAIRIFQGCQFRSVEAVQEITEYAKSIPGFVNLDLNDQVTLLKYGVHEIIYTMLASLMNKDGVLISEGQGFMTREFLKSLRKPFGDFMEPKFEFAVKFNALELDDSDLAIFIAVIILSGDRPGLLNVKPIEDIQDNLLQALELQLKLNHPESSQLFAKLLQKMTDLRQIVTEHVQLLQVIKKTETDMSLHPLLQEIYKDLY", "assay": "PPARγ transcription factor assay (PPRE-immobilized ELISA) of nuclear extracts", "type": "cell-based", "conditions": "THP-1 macrophages, 4 hrs, concentration-dependent", "method": "PPAR response elements (PPRE) binding activities were measured using an enzyme-linked immunosorbent assay (PPAR transcription factor assay kit; Cayman Chemical, Ann Arbor, Mich.). The 96-well plate was preimmobilized with deoxyoligonucleoties containing PPRE. […] The cells were then rinsed and nuclear proteins were extracted according to the manufacturer's instructions. Total nuclear extract protein, 10 g from each sample, was added to the plate. The kit provided two negative as zero controls, one positive as maximal binding control, and one competitive as specific binding control (in the presence of dsDNA) were used in the assay. After incubating for 1 hr, the wells were washed and incubated with primary PPAR antibody which recognizes the accessible epitope on PPAR protein upon PPRE binding. The peroxidase-labeled second antibody was added and incubated for 1 hr. The reaction was stopped and absorbance was read at 450 nm in a spectrophotometer."}, "NFκB": {"system": "NFκB", "assay": "NFκB dependent reporter gene-Luc assay in H441 cells, TNFα-induced", "type": "cell-based, human", "procedure": "A, THP-1 macrophages were treated with 25HC3S or 25HC for 24 hrs followed by addition or no addition of TNFα for another 3 hrs. The nuclear NFκB levels were analyzed by Western blot. The data represent one typical result out of three experiments. […] The reporter gene expression was induced by incubating with 10 ng/ml of TNFα for 3 hrs. The left figure represents cells transfected with pNFκB dependent reporter gene-Luc plasmid alone; the right figure, represents cells co-transfected with PPARγ expression plasmid.\nH441 cells were seeded in 96-well plates. When cell density reached 90-95%, the cells were transfected with an expression plasmid as indicated using a lipid-based FuGENE HD transfection reagent according to the manufacture (Roche, Indianapolis, Ind.). A synthetic renilla luciferase reporter, phrG-TK (Promega, Wisconsin, Wis.), was used as a luciferase internal standard. For PPRE reporter gene assay, 50 ng of pGL3-PPRE-acyl-CoA oxidase luciferase reporter, 50 ng of expression plasmid pCMX-PPARγ, and 50 ng of phrG-TK vector (internal standard) were cotransfected as per the manufacture's instruction. […] Luciferase activities were determined using the Dual-Glo Luciferase Assay System according to the manufacturer's protocol (Promega, Wisconsin, Wis.). The amount of luciferase activity was measured using a TopCount NXT Microplate Scintillation and Luminescence Counter (Packard, Meriden, Conn.) and normalized to the amount of phG-TK luciferase activity. Transfections were carried out in triplicate for each sample, and each experiment was repeated three times."}}, "data": [{"smiles": "C[C@H](CCCC(C)(C)O)[C@H]1CC[C@H]2[C@@H]3CC=C4C[C@@H](OS(=O)(=O)O)CC[C@]4(C)[C@H]3CC[C@]12C", "note": "[25HC3S, 5-cholesten-3β, 25-diol 3-sulphate]", "values": [{"measurement": "effect on bile acid synthetic rates", "setting": "primary rat hepatocytes", "result": "very similar to those in cells directly treated with the nuclear extracts from the StarD1 overexpressing cells"}, {"measurement": "free [14C]cholesterol synthesized from [14C]acetate", "setting": "HepG2 cells", "result": "significantly decreased"}, {"measurement": "triglyceride levels in liver tissues", "setting": "[1]", "result": "significantly decreased"}, {"measurement": "PPRE-binding activities of the nuclear extracts", "setting": "PPARγ", "result": "significantly increased"}, {"measurement": "TNFα induction of NFκB dependent reporter gene expression", "setting": "NFκB; H441, absence of PPARγ expression plasmid", "result": "failed to suppress"}, {"measurement": "reduction of TNFα induction of NFκB dependent reporter gene expression", "setting": "NFκB; H441 co-transfected with PPARγ expression plasmid", "result": 50, "unit": "%"}, {"measurement": "suppression of NFκB reporter induction in the presence of PPARγ antagonist", "setting": "NFκB; H441 co-transfected with PPARγ, T0070907", "result": "the suppression was blunted"}]}]}
